Series [1] in a line: Intracellular concentration measured in HeLa cells. The settings on record: human, read-out: calculated free fraction. Type of series: in vitro ADME. As to the method: (§1) The steady state cellular concentration of Compound A was measured in Hela cells after 4 hours exposure to […] Compound A (Table 3). Based on the calculated free fraction of 5.12%, the free cellular concentration of Compound A is calculated to be 3.087 μM (Table 3).

For series [2], the system named is HeLa cells. The series can be described thus: Intracellular concentration measured in HeLa cells. It is filed as in vitro ADME. As to the method:
as §1

Series [3] concerns DLD1 BRCA2 KO cells (colorectal). The series can be described thus: 14 days CFA, combination screen. Type of series: cell-based. To be noted: Compound A and Niraparib combination.
The target in series [4] is Polθ (Rattus norvegicus, UniProt D4A628). The series can be described thus: Polθ ATPase biochemical assay, rat. To be noted: read-out: pIC50, inhibition of Polθ (converted). As for the experimental part:
The ATPase activity of Polθ recombinant helicase domain was measured in an enzymatic activity assay. The production of ADP from ATP substrate was determined in a coupled enzyme assay linked to NAD+ production. The NAD+ production was measured by monitoring absorbance changes at 340 nm in a kinetic manner. Gradients of the rate plots were determined for each concentration of Compound A and expressed as % inhibition of enzyme activity.

The target of series [5] is Hel308 (Homo sapiens, UniProt Q8TDG4). The series is described as follows: Selectivity for Polθ vs. Hel308. Type of series: biochemical.
Sequence of Hel308 (Q8TDG4 whole entry, species assumed): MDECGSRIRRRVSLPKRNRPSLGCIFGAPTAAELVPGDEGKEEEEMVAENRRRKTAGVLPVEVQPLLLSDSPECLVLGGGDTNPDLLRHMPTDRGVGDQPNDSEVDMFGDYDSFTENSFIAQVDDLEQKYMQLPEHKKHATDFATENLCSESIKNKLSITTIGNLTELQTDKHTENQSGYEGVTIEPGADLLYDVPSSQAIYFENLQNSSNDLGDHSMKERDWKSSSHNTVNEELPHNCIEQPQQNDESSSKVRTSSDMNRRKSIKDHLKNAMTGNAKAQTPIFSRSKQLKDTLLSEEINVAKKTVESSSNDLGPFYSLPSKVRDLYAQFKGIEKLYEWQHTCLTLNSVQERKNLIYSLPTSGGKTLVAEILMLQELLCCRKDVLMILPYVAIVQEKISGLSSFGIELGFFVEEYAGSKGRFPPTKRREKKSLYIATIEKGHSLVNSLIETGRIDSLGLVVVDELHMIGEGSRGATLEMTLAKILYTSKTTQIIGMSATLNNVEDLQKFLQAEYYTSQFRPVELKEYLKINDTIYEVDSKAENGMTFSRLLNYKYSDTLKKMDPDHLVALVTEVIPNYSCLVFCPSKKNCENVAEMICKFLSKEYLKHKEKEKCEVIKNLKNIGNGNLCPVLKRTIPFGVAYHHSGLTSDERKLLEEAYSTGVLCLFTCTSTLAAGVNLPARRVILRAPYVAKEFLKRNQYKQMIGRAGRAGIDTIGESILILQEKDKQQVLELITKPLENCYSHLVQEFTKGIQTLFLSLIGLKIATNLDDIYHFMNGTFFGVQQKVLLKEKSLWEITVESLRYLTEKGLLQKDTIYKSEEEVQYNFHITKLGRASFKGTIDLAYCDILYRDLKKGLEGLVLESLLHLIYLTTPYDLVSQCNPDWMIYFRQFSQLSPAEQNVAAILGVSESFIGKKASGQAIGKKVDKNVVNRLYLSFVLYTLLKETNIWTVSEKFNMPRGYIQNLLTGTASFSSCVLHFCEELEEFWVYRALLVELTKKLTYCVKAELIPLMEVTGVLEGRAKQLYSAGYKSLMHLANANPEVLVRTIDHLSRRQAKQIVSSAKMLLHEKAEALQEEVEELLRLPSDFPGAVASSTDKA

Sequence of Polθ (D4A628 1-2547): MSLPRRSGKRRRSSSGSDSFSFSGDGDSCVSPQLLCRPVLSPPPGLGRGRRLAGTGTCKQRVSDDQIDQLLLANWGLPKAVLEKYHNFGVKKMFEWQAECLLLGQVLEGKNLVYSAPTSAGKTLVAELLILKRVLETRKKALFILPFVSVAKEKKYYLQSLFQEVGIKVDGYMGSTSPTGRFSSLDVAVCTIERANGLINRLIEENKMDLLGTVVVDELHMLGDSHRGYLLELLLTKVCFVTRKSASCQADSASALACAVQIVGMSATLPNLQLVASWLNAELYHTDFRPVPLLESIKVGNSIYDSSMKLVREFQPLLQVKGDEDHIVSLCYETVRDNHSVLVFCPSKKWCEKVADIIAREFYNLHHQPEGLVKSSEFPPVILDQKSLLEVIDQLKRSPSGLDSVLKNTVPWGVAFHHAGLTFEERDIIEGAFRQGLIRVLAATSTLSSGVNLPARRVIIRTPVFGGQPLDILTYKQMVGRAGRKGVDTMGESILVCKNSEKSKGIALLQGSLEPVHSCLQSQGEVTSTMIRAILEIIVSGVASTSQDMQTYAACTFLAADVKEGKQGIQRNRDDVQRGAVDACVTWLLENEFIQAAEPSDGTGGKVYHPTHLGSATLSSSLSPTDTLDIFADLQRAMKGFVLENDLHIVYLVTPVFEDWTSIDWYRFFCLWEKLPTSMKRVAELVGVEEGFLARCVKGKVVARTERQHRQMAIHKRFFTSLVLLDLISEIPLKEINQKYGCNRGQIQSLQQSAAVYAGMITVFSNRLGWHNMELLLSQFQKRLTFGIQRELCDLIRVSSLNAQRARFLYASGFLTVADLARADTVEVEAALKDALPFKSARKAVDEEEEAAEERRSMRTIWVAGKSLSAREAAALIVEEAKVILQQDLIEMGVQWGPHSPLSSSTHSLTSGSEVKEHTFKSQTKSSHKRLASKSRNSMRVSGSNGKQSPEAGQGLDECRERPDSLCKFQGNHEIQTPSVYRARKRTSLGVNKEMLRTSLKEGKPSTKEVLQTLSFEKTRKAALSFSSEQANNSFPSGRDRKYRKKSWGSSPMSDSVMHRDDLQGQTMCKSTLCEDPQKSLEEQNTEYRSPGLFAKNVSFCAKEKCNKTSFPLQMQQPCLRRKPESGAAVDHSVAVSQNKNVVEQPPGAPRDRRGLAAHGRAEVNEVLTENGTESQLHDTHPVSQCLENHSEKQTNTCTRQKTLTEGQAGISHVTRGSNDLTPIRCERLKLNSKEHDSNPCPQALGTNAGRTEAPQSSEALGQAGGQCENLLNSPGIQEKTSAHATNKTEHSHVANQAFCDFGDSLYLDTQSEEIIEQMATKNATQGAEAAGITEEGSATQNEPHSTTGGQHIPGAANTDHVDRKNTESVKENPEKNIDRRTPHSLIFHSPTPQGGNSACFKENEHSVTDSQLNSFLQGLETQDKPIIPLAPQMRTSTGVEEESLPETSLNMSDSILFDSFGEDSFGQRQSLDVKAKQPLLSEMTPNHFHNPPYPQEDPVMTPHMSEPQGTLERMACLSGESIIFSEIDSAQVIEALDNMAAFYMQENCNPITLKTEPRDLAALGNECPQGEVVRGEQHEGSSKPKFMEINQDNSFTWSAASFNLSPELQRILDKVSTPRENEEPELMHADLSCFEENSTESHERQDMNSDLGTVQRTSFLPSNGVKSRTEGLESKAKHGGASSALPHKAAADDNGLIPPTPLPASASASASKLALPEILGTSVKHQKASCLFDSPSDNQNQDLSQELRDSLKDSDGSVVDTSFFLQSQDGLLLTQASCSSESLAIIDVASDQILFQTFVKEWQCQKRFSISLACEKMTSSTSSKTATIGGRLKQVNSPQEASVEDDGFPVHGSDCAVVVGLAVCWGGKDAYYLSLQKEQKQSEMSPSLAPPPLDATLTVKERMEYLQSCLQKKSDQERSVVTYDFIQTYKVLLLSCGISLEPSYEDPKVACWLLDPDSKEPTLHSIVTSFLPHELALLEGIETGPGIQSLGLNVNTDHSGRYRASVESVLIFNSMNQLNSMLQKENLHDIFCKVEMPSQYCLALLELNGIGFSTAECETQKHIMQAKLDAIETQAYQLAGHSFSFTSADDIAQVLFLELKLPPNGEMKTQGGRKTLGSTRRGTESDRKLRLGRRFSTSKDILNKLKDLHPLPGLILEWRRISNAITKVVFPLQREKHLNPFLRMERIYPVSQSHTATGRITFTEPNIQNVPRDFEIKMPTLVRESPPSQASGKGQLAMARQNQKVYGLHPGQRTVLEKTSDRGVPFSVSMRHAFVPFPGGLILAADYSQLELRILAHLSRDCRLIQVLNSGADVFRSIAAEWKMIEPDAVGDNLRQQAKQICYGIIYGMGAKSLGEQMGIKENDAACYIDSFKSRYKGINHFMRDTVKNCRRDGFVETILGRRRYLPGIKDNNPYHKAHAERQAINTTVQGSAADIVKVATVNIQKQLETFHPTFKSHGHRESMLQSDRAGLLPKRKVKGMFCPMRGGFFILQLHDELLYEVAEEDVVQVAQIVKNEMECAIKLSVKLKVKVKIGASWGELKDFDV

For the compound `COc1nnc(NC(=O)c2cnc(C)cc2-c2cc(Cl)ncc2OC)s1` [Compound A, 2′-chloro-5′-methoxy-N-(5-methoxy-1,3,4-thiadiazol-2-yl)-6-methyl-(4,4′-bipyridine)-3-carboxamide], the fraction unbound in series [1] was 0.0512. In addition, the Free cellular concentration in series [2] (4 hours exposure to 20 mM Compound A, calculated from free fraction) is 3.087 µM. The Total cellular concentration in series [2] (steady state after 4 hours exposure to 20 mM Compound A) stood at 60.308 µM. Besides, the “Comb Benefit” value in series [3] is “Yes”. Besides, the IC50 in series [4] was 0.01 µM. The “selectivity for Polθ vs. Hel308” value in series [5] is over 1000 fold.

The record behind these values is patent publication US12398131B2, “Thiadiazolyl derivatives as DNA polymerase theta inhibitors and uses thereof” (GlaxoSmithKline Intellectual Property (No.4) Limited, priority 2022, dated 2025).
